Measured values from patent US9493421B2, “Acridinedione derivatives for treating pigmentation disorders and ageing of the skin” (PIERRE FABRE DERMO-COSMETIQUE, priority 2011, dated 2016).

Columns and labels:
[1] = Test to study anti-oxidizing capability using chemiluminescence (Photochem Analytic Jena); assay type: biochemical; conditions: quantity of sample needed for activity equivalent to 1 μg Trolox, superoxide anion trapping
Method: This test is used to determine the anti-oxidizing capability of the molecules. It is a method which generates free radicals via photochemical signal. The intensity of oxidation is 1000 times higher than obtained under normal conditions.
Detection is performed using chemiluminescence. This allows evaluation of water-soluble and liposoluble antioxidant molecules or extracts
The results are expressed in equivalent quantity of vitamin C or Trolox (6-hydroxy-2,5,7,8-tetramethylchroman-2-carboxylic acid) respectively. Sensitivity is in the order of one nanomole.
The anti-oxidizing activity studied in this test represents the capability of specifically trapping superoxide anions by chemiluminescence.
The quantified results are expressed in Trolox equivalent (standard) or in “μg of product per 1 μg of Trolox”. This means that a quantity x of sample is needed to obtain activity equivalent to the activity detected with 1 μg of standard. It is the antioxidizing power in relation to a reference; this avoids having to take into account the concentrations tested.
The superoxide radical: O2^∘^− is generated by photochemical reaction: L+hv(UV)+O2→L*O2→L^∘^++O2^∘^− • L*: luminol in the excited state L^∘+: luminol radical Signal Detection
Part of the superoxide anions are inhibited by the antioxidants. The remaining free radicals are quantified by chemiluminescence. L^∘^++O2^∘^−→N2+AP*^2−→AP^2−+hv (luminescence)
AP*^2−: aminophthalate in the excited state

[2] = Log P (octanol/water partition coefficient); assay type: physicochemical
From the text: Log P, also called Log Kow, is a measurement of the differential solubility of chemical compounds in two solvents (octanol/water partition coefficient).
Log P is equal to the logarithm of the ratio of the concentrations of the examined substance in octanol and in water. Log P=Log(Coct/Cwater). With this value it is possible to assess the hydrophilic or hydrophobic (lipophilic) nature of a molecule. If Log P is positive and very high, this means that the molecule under consideration is much more soluble in octanol than in water, which reflects its lipophilic nature, and conversely. A value of Log P=0 means that the molecule is distributed equally between the two phases and Coct=Cwater (C. Hansch, J. F. Quinlan, G. L. Lawrence, Linear free energy relationship between partition coefficients and the aqueous solubility of organic liquids, J. Org. Chem., 33 (1968), 347-350; C. Hansch, A. Leo, Exploring QSAR—Fundamentals and Applications in Chemistry and Biology, American Chemical Society, Washington, 1995; J. Sangster, Octanol—Water Partition Coefficients: Fundamentals and Physical Chemistry, Wiley, Chichester, 1997; W. Jorgensen, E. Duffy, Advanced Drug Delivery Reviews, (54), 2002, 355-366).

B16-F10 cells = experiment: Assay of melanin in B16-F10 cells (colorimetric, α-MSH stimulated); assay type: cell-based, murine; conditions: 0.1 μM α-MSH
Method: It is a test to measure the synthesis of melanin by colorimetric assay on a murine melanoma cell line: line B16-F10. With this test it is possible to evaluate the depigmenting or propigmenting property of active ingredients.
The B16-F10 cells were seeded in 96-well plates in DMEM medium supplemented with FCS (foetal calf serum), and incubated 24 h at 37° C., 5% CO2. The cells were stimulated with 0.1 μM α-MSH (to stimulate melanin synthesis, the observed stimulation being about 150%) and treated 72 h with the active ingredients to be assayed. Each concentration of active ingredient was assayed at least in triplicate. Total melanin and intracellular melanin dissolved in lysis buffer were assayed by absorbance read-off at 405 nm. The total proteins were assayed in the lysate and the results expressed in mg melanin/mg proteins. Percentage activity was calculated as follows: […]
A negative value indicates inhibition of the melanin synthesis and translates depigmenting activity of the compound, whereas a positive value indicates induced melanin synthesis and translates a propigmenting property of the molecule.
• B16-F10 cell lines between P10 and P20 (murine melanocytes) (ATCC, CRL-6475); • reagents: DMEM without Phenol Red (GIBCOBRL, 118800-028), 200 mM glutamax-I supplement (GIBCOBRL, 35050-038), glucose (SIGMA, G7021), PBS (GIBCOBRL, 14190-094), foetal calf serum (Invitrogen, 10270-098), trypsin-EDTA (GIBCOBRL, 25300-054), NaOH (Sigma, S8045-500G), DMSO (Sigma, 471267-11), Nle, Phe-Melanocyte Stimulating Hormone (Sigma, M-8764), melanin (Sigma, M-0418), BCA-COPPER (SIGMA, B9643 and C2284), BSA (SIGMA, P0914) B) Test to Study Anti-Oxidizing Capability Using Chemiluminescence (Photochem Analytic Jena) Principle

[3] = Mus musculus, B16-F10, 72 h, negative = inhibition, positive = stimulation, read-out: Melanin synthesis on B16

| Compound | logP [2] | melting point | other results |
| --- | --- | --- | --- |
| CN1C2=C(C(=O)CC(C)(C)C2)C(c2ccc(O)c(O)c2)C2=C1CC(C)(C)CC2=O [Example 4, 9-(3,4-dihydroxyphenyl)-3,3,6,6,10-pentamethyl-3,4,6,7,9,10-hexahydroacridine-1,8(2H,5H)-dione] | – | – | μg sample per 1 μg of Trolox [1]: 0.017 μg sample per 1 μg of Trolox |
| CN1C2=C(C(=O)CC(c3ccccc3)C2)C(c2ccc(O)c(O)c2)C2=C1CC(c1ccccc1)CC2=O (stereo not shown) [Example 5, 9-(3,4-dihydroxyphenyl)-10-methyl-3,6-diphenyl-3,4,6,7,9,10-hexahydroacridine-1,8(2H,5H)-dione] | – | – | μg sample per 1 μg of Trolox [1]: 0.05 μg sample per 1 μg of Trolox |
| CCCCCCCCCCN1C2=C(C(=O)CC(c3ccccc3)C2)C(c2ccc(O)c(O)c2)C2=C1CC(c1ccccc1)CC2=O (stereo not shown) [Example 6, 10-decyl-9-(3,4-dihydroxyphenyl)-3,6-diphenyl-3,4,6,7,9,10-hexahydroacridine-1,8(2H,5H)-dione] | – | – | μg sample per 1 μg of Trolox [1]: 0.04 μg sample per 1 μg of Trolox |
| COc1cc(C2C3=C(CC(C)(C)CC3=O)NC3=C2C(=O)CC(C)(C)C3)ccc1O [Example 10, 9-(4-hydroxy-3-methoxyphenyl)-3,3,6,6-tetramethyl-3,4,6,7,9,10-hexahydroacridine-1,8(2H,5H)-dione] | 1.49 | 309.8 °C | activation at 100 µM (B16-F10 cells; [3]): 29% |
| COc1cc(C2C3=C(CC(C)(C)CC3=O)N(C)C3=C2C(=O)CC(C)(C)C3)ccc1O [Example 11, 9-(4-hydroxy-3-methoxyphenyl)-3,3,6,6,10-pentamethyl-3,4,6,7,9,10-hexahydroacridine-1,8(2H,5H)-dione] | 1.72 | – | activation at 100 µM (B16-F10 cells; [3]): 47% |
| CCN1C2=C(C(=O)CC(C)(C)C2)C(c2ccc(O)c(OC)c2)C2=C1CC(C)(C)CC2=O [Example 12, 10-ethyl-9-(4-hydroxy-3-methoxyphenyl)-3,3,6,6-tetramethyl-3,4,6,7,9,10-hexahydroacridine-1,8(2H,5H)-dione] | 2.06 | – | activation at 50 µM (B16-F10 cells; [3]): 72% |
| CCCN1C2=C(C(=O)CC(C)(C)C2)C(c2ccc(O)c(OC)c2)C2=C1CC(C)(C)CC2=O [Example 13, 9-(4-hydroxy-3-methoxyphenyl)-3,3,6,6-tetramethyl-10-propyl-3,4,6,7,9,10-hexahydroacridine-1,8(2H,5H)-dione] | 2.55 | 259.5 °C | activation at 50 µM (B16-F10 cells; [3]): 43% |
| CCCCCN1C2=C(C(=O)CC(C)(C)C2)C(c2ccc(O)c(OC)c2)C2=C1CC(C)(C)CC2=O [Example 15, 9-(4-hydroxy-3-methoxyphenyl)-3,3,6,6-tetramethyl-10-pentyl-3,4,6,7,9,10-hexahydroacridine-1,8(2H,5H)-dione] | 3.38 | 194.5 °C | activation at 50 µM (B16-F10 cells; [3]): 42% |
| CCCCCCCCCN1C2=C(C(=O)CC(C)(C)C2)C(c2ccc(O)c(OC)c2)C2=C1CC(C)(C)CC2=O [Example 19, 9-(4-hydroxy-3-methoxyphenyl)-3,3,6,6-tetramethyl-10-nonyl-3,4,6,7,9,10-hexahydroacridine-1,8(2H,5H)-dione] | 5.05 | 127 °C | activation at 5 µM (B16-F10 cells; [3]): -42% |
| CCCCCCCCCCCN1C2=C(C(=O)CC(C)(C)C2)C(c2ccc(O)c(OC)c2)C2=C1CC(C)(C)CC2=O [Example 20, 9-(4-hydroxy-3-methoxyphenyl)-3,3,6,6-tetramethyl-10-undecyl-3,4,6,7,9,10-hexahydroacridine-1,8(2H,5H)-dione] | 5.89 | 118.9 °C | activation at 5 µM (B16-F10 cells; [3]): -57% |
| COc1cc(C2C3=C(CC(C)(C)CC3=O)N(Cc3ccccc3)C3=C2C(=O)CC(C)(C)C3)ccc1O [Example 21, 10-benzyl-9-(4-hydroxy-3-methoxyphenyl)-3,3,6,6-tetramethyl-3,4,6,7,9,10-hexahydroacridine-1,8(2H,5H)-dione] | 3.46 | – | activation at 100 µM (B16-F10 cells; [3]): 48% |
| COc1cc(C2C3=C(CC(C)(C)CC3=O)N(CC(c3ccccc3)c3ccccc3)C3=C2C(=O)CC(C)(C)C3)ccc1O [Example 24, 10-(2,2-diphenylethyl)-9-(4-hydroxy-3-methoxyphenyl)-3,3,6,6-tetramethyl-3,4,6,7,9,10-hexahydroacridine-1,8(2H,5H)-dione] | 5.32 | – | activation at 5 µM (B16-F10 cells; [3]): -37% |
| Nle, Phe-Melanocyte Stimulating Hormone [α-MSH, reference compound] | – | – | Stimulation of melanin synthesis (B16-F10 cells; B16-F10 cells): about 150% |

More lines, main results first:

| logP [2] | melting point | Compound | other results |
| --- | --- | --- | --- |
| 2.97 | – | CCCCN1C2=C(C(=O)CC(C)(C)C2)C(c2ccc(O)c(OC)c2)C2=C1CC(C)(C)CC2=O [Example 14, 10-butyl-9-(4-hydroxy-3-methoxyphenyl)-3,3,6,6-tetramethyl-3,4,6,7,9,10-hexahydroacridine-1,8(2H,5H)-dione] | activation at 20 µM (B16-F10 cells; [3]): 45% |
| 3.8 | 177.7 °C | CCCCCCN1C2=C(C(=O)CC(C)(C)C2)C(c2ccc(O)c(OC)c2)C2=C1CC(C)(C)CC2=O [Example 16, 10-hexyl-9-(4-hydroxy-3-methoxyphenyl)-3,3,6,6-tetramethyl-3,4,6,7,9,10-hexahydroacridine-1,8(2H,5H)-dione] | – |
| 4.22 | 154.8 °C | CCCCCCCN1C2=C(C(=O)CC(C)(C)C2)C(c2ccc(O)c(OC)c2)C2=C1CC(C)(C)CC2=O [Example 17, 10-heptyl-9-(4-hydroxy-3-methoxyphenyl)-3,3,6,6-tetramethyl-3,4,6,7,9,10-hexahydroacridine-1,8(2H,5H)-dione] | activation at 20 µM (B16-F10 cells; [3]): -68% |
| 4.63 | 154.2 °C | CCCCCCCCN1C2=C(C(=O)CC(C)(C)C2)C(c2ccc(O)c(OC)c2)C2=C1CC(C)(C)CC2=O [Example 18, 9-(4-hydroxy-3-methoxyphenyl)-3,3,6,6-tetramethyl-10-octyl-3,4,6,7,9,10-hexahydroacridine-1,8(2H,5H)-dione] | activation at 5 µM (B16-F10 cells; [3]): -59% |
| 3.74 | – | COc1cc(C2C3=C(CC(C)(C)CC3=O)N(CCc3ccccc3)C3=C2C(=O)CC(C)(C)C3)ccc1O [Example 22, 9-(4-hydroxy-3-methoxyphenyl)-3,3,6,6-tetramethyl-10-phenethyl-3,4,6,7,9,10-hexahydroacridine-1,8(2H,5H)-dione] | – |
| 4.15 | – | COc1cc(C2C3=C(CC(C)(C)CC3=O)N(CCCc3ccccc3)C3=C2C(=O)CC(C)(C)C3)ccc1O [Example 23, 9-(4-hydroxy-3-methoxyphenyl)-3,3,6,6-tetramethyl-10-(3-phenylpropyl)-3,4,6,7,9,10-hexahydroacridine-1,8(2H,5H)-dione] | activation at 10 µM (B16-F10 cells; Mus musculus, B16-F10, at 10 μM, 72 h, negative = inhibition, positive = stimulation, read-out: Melanin synthesis on B16): -37% |
